# In publication PMC9380551 (Antimicrobial Agents and Chemotherapy, 2022):
# Tested on: SARS-CoV-2 Wuhan reference strain
# Assay type: cell-based
row,Structure (SMILES),comparative efficiency in inhibiting SARS-CoV-2 replication
1,CC(C)c1nc(CN(C)C(=O)N[C@H](C(=O)N[C@@H](Cc2ccccc2)C[C@H](O)[C@H](Cc2ccccc2)NC(=O)OCc2cncs2)C(C)C)cs1 [ritonavir],AB-00011778 was more efficient than the ritonavir molecule
2,CCC(CC)COC(=O)[C@H](C)N[P@](=O)(OC[C@H]1O[C@@](C#N)(c2ccc3c(N)ncnn23)[C@H](O)[C@@H]1O)Oc1ccccc1 [remdesivir],the most efficient molecule
